# Assay results: patent EP4056546A1, “ALIPHATIC 18F-RADIOLABELING OF A TETRAZINE PRECURSOR” (University of Copenhagen, priority 2021, dated 2022)
# What was measured:
# [1] = Reaction kinetics measurement: second-order rate constants of tetrazines with TCO (stopped-flow photometer, pseudo-first-order); assay type: physicochemical; conditions: Second order rate constants with TCO at 37 °C in PBS
# Protocol: Reaction kinetics of tetrazines with standard TCO were determined using pseudo-first-order measurements with an excess of the TCO compound in PBS (pH = 7.4) at 37.0 ± 0.1 °C following the decrease of tetrazine absorbance at 535 nm. Measurements were performed in triplicates using an SX20 stopped-flow photometer (Applied Photophysics, UK) equipped with a 535 nm LED light source. Data analysis was performed using Prism 6 (Graphpad) to determine the observed rate constants which were converted into secondorder rate constants through dividing by the TCO concentration.
# Second-order rate constants for the reaction with TCO in PBS at 37 °C were determined by pseudo-first order measurements in a SX20 stopped flow photometer (Applied Photophysics).
# [2] = Bench stability by analytical HPLC; assay type: physicochemical
# From the text: The stability of [^18F]13 and it precursor (28) was investigated by analytical HPLC.
# [3] = Tetrazine core reactivity test with TCO-PNP (analytical HPLC); assay type: physicochemical; conditions: after 4 hours at r.t.
# Protocol: The reaction between [^18F]13 TCO-PNP was performed by mixing the formulated [^18F]13 (200 µL) with 5 µL of the commercially available TCO-PNP ester dissolved in DMF (5 mg/mL) in an analytical HPLC vial. […]
# [4] = tested on: CC49-TCO; test: Pretargeted PET/CT imaging in LS174T tumor xenograft bearing mice; assay type: in vivo, Balb/c nude mice
# Protocol: The ability of [^18F]13 to be used as a pretargeting imaging agent was evaluated using a similar pretargeted setup that was used for the ex vivo blocking study in example 7. Mice were administered with CC49-TCO 72 h prior to administration of [^18F]13 where after PET/CT scanning was performed 1 h later. Control animals were injected with unconjugated mAb CC49 instead of CC49-TCO, but were otherwise treated exactly the same. After PET/CT scanning, animals were euthanized and an ex vivo biodistribution performed. […] The tumor uptake was clearly visible. A tumor-to-muscle (T/M) ratio of 20.1 and a tumor-to-blood (T/B) ratio of 1.2 from the image derived data (heart uptake used as surrogate for blood uptake) was determined. The relatively low T/B ratio is likely due to ligation of [^18F]13 with remnant CC49-TCO still circulating in the blood. Clearance of CC49-TCO from blood will most likely increase the ratio drastically. Uptake in tissues beside tumor and blood was low. […]
# Pretargeted imaging of [^18F]13 as tested in vivo using the TAG-72 targeting antibody CC49 in human colorectal cancer xenograft tumors LS174T. […] The radioactivity in the tissues were determined using a gamma counter (Wizard^2, Perkin Elmer). Data was corrected for decay, tissue weight and the injected dose of radioactivity. […] Statistical difference between mean %ID/g values were analyzed using Welch's T-test. […]
smiles,measurement,setting,value
"O=C(O)C(F)(F)F.O=C(O)CN(CCF)Cc1ccc(-c2nncnn2)cc1 [Compound 12, N-(4-(1,2,4,5-tetrazin-3-yl)benzyl)-N-(carboxymethyl)-2-fluoroethanaminium 2,2,2-trifluoroacetate]",Rate constant,[1],54999 M⁻¹ s⁻¹
"O=C(O)C(F)(F)F.O=C(O)CN(CC(=O)O)Cc1ccc(-c2nncnn2)cc1OCCF [Compound 13, 1-Carboxy-N-(carboxymethyl)-N-(2-(2-fluoroethoxy)-4-(1,2,4,5-tetrazin-3-yl)benzyl) methanaminium 2,2,2-trifluoroacetate]",Rate constant,[1],68478 M⁻¹ s⁻¹
O=C(O)CN(CC(=O)O)Cc1ccc(-c2nncnn2)cc1OCC[18F] [[^18F]13],Stability at r.t. over 4 hours,"[2]; after 4 hours, Figure 5A",no signs of decomposition
same,stability (time stable),"[2]; analytical HPLC, r.t.",at least 4 hours
same,ability to react with TCO-PNP,[3],still able to react quantitatively with TCO-PNP
same,"tumor-to-muscle ratio in comparison with [64Cu]Cu-NOTa-PEG7-H-Tz, [111In]Tz-Tg and ZZ","[4]; PET imaging, Figure 6",highest tumor-to-musle ratio
same,Uptake in tissues beside tumor and blood,"[4]; PET/CT 1 h p.i., CC49-TCO pretargeted",low
"O=C(O)C(F)(F)F.O=C(O)CN(CCF)Cc1cccc(-c2nncnn2)c1 [Compound 10, N-(3-(1,2,4,5-tetrazin-3-yl)benzyl)-N-(carboxymethyl)-2-fluoroethanaminium 2,2,2-trifluoroacetate]",Rate constant,[1],62464 M⁻¹ s⁻¹
"O=C(O)C(F)(F)F.O=C(O)CN(CCF)Cc1cc(F)cc(-c2nncnn2)c1 [Compound 9, N-(carboxymethyl)-2-fluoro-N-(3-fluoro-5-(1,2,4,5-tetrazin-3-yl)benzyl)ethanaminium 2,2,2-trifluoroacetate]",Rate constant,[1],87722 M⁻¹ s⁻¹
"CC(C)(C)OC(=O)CN(CC(=O)OC(C)(C)C)Cc1ccc(-c2nncnn2)cc1OCCOS(=O)(=O)c1ccc([N+](=O)[O-])cc1 [Compound 28, Di-tert-butyl 2,2'-((2-(2-(((4-nitrophenyl)sulfonyl)oxy)ethoxy)-4-(1,2,4,5-tetrazin-3-yl)benzyl)azanediyl)diacetate]",stability of the precursor,"[2]; bench stability, analytical HPLC",decomposed over time
same,stability of the precursor (time stable),[2]; dissolved (25 mg/mL) in DMSO and frozen at -20 °C,at least 3 months
same,stability of the precursor (time stable),[2]; stored at -20 °C as a solid,≥ 3 months
"O=C(O)C(F)(F)F.O=C(O)CN(CCF)Cc1ccc(-c2nncnn2)cc1F [Compound 11, N-(carboxymethyl)-2-fluoro-N-(2-fluoro-4-(1,2,4,5-tetrazin-3-yl)benzyl)ethanaminium 2,2,2-trifluoroacetate]",Rate constant,[1],74592 M⁻¹ s⁻¹
